Holding throughout (assay type): cell-based
For one assay, the system named is S47 cells. Nature of the assay: Resazurin cytotoxicity screening, S47 cells. The conditions noted are these: for EC50: S47 cells, 72 hours, resazurin fluorescence, normalized to doxorubicin and DMSO; for Fold-resistant, S47 / Fold-sensitive, S47: S47 versus WT EC50. Here is the method: (§1) The screening methods were performed as follows. S47 and wild type cells were plated at a density of 750 cells/well in a total volume of 50 μL in 384 well Greiner microplates. The cells were allowed to attach overnight at 37° C. and then dosed with 50 nL of compound serially diluted in DMSO. Following compound addition, the assay plates were incubated at 37° C. for 72 hours, followed by the addition of 5 μL of […] Resazurin. The plates were incubated at 37° C. for 8-10 hours and then fluorescence was measured using a Perkin Elmer Envision plate reader (excitation at 530-560 nm, emission at 590 nm). Raw fluorescent counts were uploaded into Spotfire and normalized to doxorubicin (positive control) and DMSO (negative control) treated wells (n=12/plate). EC50 values were calculated by applying a logistic regression curve fit and expressed as μM compound that was effective in killing 50% of the cell population at 72 hours.
Background: Resazurin is reduced to fluorescent resorufin, in cell work by metabolically active cells.

For the next assay, the system named is wild type cells. Nature of the assay: Resazurin cytotoxicity screening, wild type cells. The conditions noted are these: 72 hours, resazurin fluorescence, normalized to doxorubicin and DMSO, read-out: WT EC50. The protocol: as §1
The subject of the next assay is S47 tumor cells. The assay can be described thus: Sensitivity of E1A/Ras-transformed S47 tumor cells compared to WT cells. The conditions noted are these: S47 and WT cells expressing E1A/Ras. Here is the method:
S47 and WT cells expressing E1A/Ras were analyzed.
A tumorigenic (transformed) version of WT and S47 cells may be created as follows. WT and S47 cells were transfected with two oncogenes (E1A and Ras).

Structures are written as SMILES.

In general, EC50 refers to the concentration needed to bring the measured effect to its halfway point. Turning to `Cc1cn(-c2cc(NC(=O)c3ccc(C)c(Nc4nccc(-c5cccnc5)n4)c3)cc(C(F)(F)F)c2)cn1` [AMN107], in the assay with S47 cells, the EC50 is more than 10 µM and the “Fold-resistant, S47” value came to 28. For the same molecule, the EC50 with wild type cells stood at 0.353 µM.

As for `C[C@@H]1COCCN1c1cc(C2([S@](C)(=N)=O)CC2)nc(-c2cc[nH]c3nccc2-3)n1` [AZD6738], the EC50 is more than 10 µM with S47 cells and 0.377 µM in the assay with wild type cells. In the assay with S47 cells, the “Fold-resistant, S47” value worked out at 26.

For `N.N.[Cl][Pt][Cl]` [Cisplatin, (SP-4-2)-diamminedichloroplatinum(II)], in the assay on S47 cells, the EC50 turned out to be 0.79 µM and the “Fold-resistant, S47” value stood at 2.3. In the assay on S47 tumor cells, the “Sensitivity of S47 tumor cells compared to WT cells” value (“Sensitivity … compared to WT cells” for short) is reported as “more sensitive”. Also, in the assay with wild type cells, the EC50 amounted to 0.348 µM.

With `COc1cccc2c1C(=O)c1c(O)c3c(c(O)c1C2=O)C[C@@](O)(C(=O)CO)C[C@@H]3O[C@H]1C[C@H](N)[C@H](O)[C@H](C)O1` [Doxorubicin], in the assay on S47 cells, it took 0.292 µM to reach a half-maximal effect (EC50) and the “Fold-resistant, S47” value worked out at 2. For the same molecule, the EC50 with wild type cells was 0.146 µM.

With `CS(=O)(=O)N1CCN(Cc2cc3nc(-c4cccc5[nH]ncc45)nc(N4CCOCC4)c3s2)CC1` [GDC0941, 2-(1H-indazol-4-yl)-6-((4-(methylsulfonyl)piperazin-1-yl)methyl)-4-morpholinothieno[3,2-d]pyrimidine], the EC50 with S47 cells was 0.012 µM; in the assay with wild type cells it was 0.028 µM. Besides, the “Fold-sensitive, S47” value with S47 cells was found to be 2.33.

With `COc1ncc(-c2ccc3nccc(-c4ccnnc4)c3c2)cc1NS(=O)(=O)c1ccc(F)cc1F` [GSK2126458, 2,4-difluoro-N-(2-methoxy-5-(4-(pyridazin-4-yl)quinolin-6-yl)pyridin-3-yl)benzenesulfonamide], the 50% effective concentration (EC50) in the assay on S47 cells worked out at 0.00046 µM; in the assay on wild type cells it was 0.0015 µM. Further, the “Fold-sensitive, S47” value with S47 cells was 3.26.

With `CC(C)n1nc(-c2ccc3oc(N)nc3c2)c2c(N)ncnc21` [INK128, 5-(4-amino-1-isopropyl-1H-pyrazolo[3 ,4-d]pyrimidin-3-yl)benzo[d]oxazol-2-amine], in the assay on S47 cells, the EC50 is 0.0095 µM and the “Fold-sensitive, S47” value was 1.5. Moreover, the half-maximal effective concentration (EC50) in the assay with wild type cells came out at 0.0145 µM.

As to `Cc1[nH]c2ccccc2c1CCNCc1ccc(/C=C/C(=O)NO)cc1` [LBH589], in the assay with S47 cells, a half-maximal effect (EC50) was put at 0.0066 µM and the “Fold-resistant, S47” value was 2. Besides, in the assay with wild type cells, the EC50 was determined as 0.0032 µM.

Take `COc1cccc2cc(-c3nc([C@H]4CC[C@H](C(=O)O)CC4)n4ncnc(N)c34)[nH]c12` [OSI027, trans-4-[4-amino-5-(7-methoxy-1H-indol-2-yl)imidazo[5,1-f][1,2,4]triazin-7-yl]cyclohexanecarboxylic acid]: in the assay with S47 cells, the EC50 came out at 0.173 µM and the “Fold-sensitive, S47” value is recorded as 4.3. The “Sensitivity … compared to WT cells” value in the assay on S47 tumor cells is given as “more sensitive”. Moreover, in the assay on wild type cells, the EC50 was 0.745 µM.

For `CC[C@@]1(O)C(=O)OCc2c1cc1n(c2=O)Cc2cc3ccccc3nc2-1` [camptothecin], the “Sensitivity … compared to WT cells” value in the assay on S47 tumor cells is “less sensitive”.
